Laboratory results as given in patent publication US8486885B2, “β-arrestin effectors and compositions and methods of use thereof” (Trevena, Inc., priority 2008, dated 2013).
Non-standard residues stand in square brackets, D forms with d. Residues, ends and D or L forms follow the SMILES beside them. Sar = CNCC(=O)O

How the values were obtained:
Type in all cases: cell-based
[1] = target: human angiotensin 2 type 1 receptor (human AT1R) (Homo sapiens, UniProt P30556); assay: PathHunter β-arrestin-2 recruitment assay, human AT1R; conditions: PathHunter β-arrestin HEK293 cells; for EC50: read-out: human AT1R b-arrestin2 EC50
Method: (§1) The proximal event in β-arrestin function mediated by GPCRs is recruitment to receptors following ligand binding and receptor phosphorylation by GRK's. Thus, the measure of β-arrestin recruitment was used to determine ligand efficacy for β-arrestin function.
(§2) B-arrestin-2 recruitment to the human and rat angiotensin 2 type 1 receptor (human AT1R and rat AT1aR, respectively) was measured with the PathHunter™ β-arrestin assay (DiscoveRx Corporation, Fremont Calif.). Cells, plasmid(s), and detection reagent(s) were purchased from DiscoveRx, and assays were performed per manufacturer's instructions. Human AT1R and rat AT1aR were cloned into the pCMV-ProLink vector, verified by sequencing, and transfected into PathHunter β-arrestin HEK293 cells. Stably transfected clonal cell lines were selected with Hygromycin and G418. These clonal cell lines were used for all experiments.
(§3) For assays, 25,000 cells were seeded per well in 96-well microplates in volumes of 90 μL and allowed to grow overnight at 37° C. in 5% CO2. Peptides of the invention were dissolved in deionized water to a concentration of 1 mM. Peptides were then further diluted in assay buffer (Hank's balanced salt solution with 20 mM HEPES) to add peptide to the cells to reach final concentrations ranging from 10 μM to 1 pM. Cells were then incubated for 60 minutes at 37° C. in 5% CO2, followed by addition of 50 μL of PathHunter Detection Reagent to each well. The microplates were then incubated at room temperature for 60 minutes, and then luminescence was measured using a NOVOstar microplate reader purchased from BMG Labtech. B-arrestin-2 recruitment to receptors was measured as relative luminescence intensity expressed in arbitrary units.
Target sequence in this assay (P32121 whole entry partner, one chain of several): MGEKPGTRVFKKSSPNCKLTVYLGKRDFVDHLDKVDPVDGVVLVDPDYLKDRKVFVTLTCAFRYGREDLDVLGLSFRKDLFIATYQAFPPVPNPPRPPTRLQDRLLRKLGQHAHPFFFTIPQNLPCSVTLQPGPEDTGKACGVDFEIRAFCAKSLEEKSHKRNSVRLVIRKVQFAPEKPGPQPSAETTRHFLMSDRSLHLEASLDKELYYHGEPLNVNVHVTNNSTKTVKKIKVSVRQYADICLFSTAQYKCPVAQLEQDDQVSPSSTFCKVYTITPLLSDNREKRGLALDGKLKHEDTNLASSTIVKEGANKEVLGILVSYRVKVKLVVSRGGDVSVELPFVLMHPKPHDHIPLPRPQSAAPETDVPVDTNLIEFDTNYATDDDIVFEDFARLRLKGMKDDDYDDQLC

[2] = target: rat angiotensin 2 type 1 receptor (rat AT1aR) (Rattus norvegicus, UniProt P25095); assay: PathHunter β-arrestin-2 recruitment assay, rat AT1aR; conditions: PathHunter β-arrestin HEK293 cells; for EC50: read-out: rat AT1aR b-arrestin2 EC50
Method: as §1, §2, §3
Target sequence in this assay (P32121 whole entry partner, one chain of several): as above

[3] = target: T1, human angiotensin 2 type 1 receptor (human AT1R) (Homo sapiens, UniProt P30556); assay: IP1 accumulation assay (IP-One Tb), human AT1R; conditions: cells expressing human AT1R
T1 construct: expressed in transfected cells
T1 sequence (P30556 1-359): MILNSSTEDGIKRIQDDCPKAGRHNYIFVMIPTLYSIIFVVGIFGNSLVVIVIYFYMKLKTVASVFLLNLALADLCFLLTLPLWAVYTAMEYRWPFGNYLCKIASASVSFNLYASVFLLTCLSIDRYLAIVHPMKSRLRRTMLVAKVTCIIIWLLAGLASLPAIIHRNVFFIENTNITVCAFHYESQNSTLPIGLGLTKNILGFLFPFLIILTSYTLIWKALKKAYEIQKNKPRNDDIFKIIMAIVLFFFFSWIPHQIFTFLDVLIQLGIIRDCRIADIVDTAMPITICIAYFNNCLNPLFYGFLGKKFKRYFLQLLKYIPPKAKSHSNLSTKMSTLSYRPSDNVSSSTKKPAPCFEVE
Method: (§4) A secondary measure of G protein coupling efficacy was also performed. IP3 is generated by activation of phospholipase C by Gα-q. IP3 is degraded to IP1, which can be forced to accumulate in cells by blocking degradation with lithium chloride. Thus we measured accumulation of IP1 to determine ligand efficacy for G protein activation.
(§5) IP1 accumulation generated by human and rat angiotensin 2 type 1 receptor (human AT1R and rat AT1aR, respectively) was measured with IP-One Tb kits purchased from Cisbio and used per the manufacturer's instructions. Clonal stably transfected cell lines expressing human AT1TR or rat AT1aR were used for all experiments.
(§6) For assays, 4,000 cells were seeded per well in 384-well small-volume microplates in volumes of 20 uL and allowed to grow overnight at 37° C. in 5% CO2. Cell growth media was then replaced with stimulation buffer supplied by Cisbio containing 50 mM lithium chloride. Peptides TRV-120,001 through TRV-120,035 were dissolved in deionized water to a concentration of 1 mM. For agonist detection, peptides were then further diluted in stimulation buffer to add peptide to the cells to reach final concentrations ranging from 10 uM to 1 pM. […] Following addition of peptides, cells were incubated at 37° C. in 5% CO2 for 30 minutes and then lysed with detection reagents added per manufacturer's instructions.

[4] = target: T2, rat angiotensin 2 type 1 receptor (rat AT1aR) (Rattus norvegicus, UniProt P25095); assay: IP1 accumulation assay (IP-One Tb), rat AT1aR; conditions: cells expressing rat AT1aR
T2 construct: expressed in transfected cells
T2 sequence (P25095 1-359): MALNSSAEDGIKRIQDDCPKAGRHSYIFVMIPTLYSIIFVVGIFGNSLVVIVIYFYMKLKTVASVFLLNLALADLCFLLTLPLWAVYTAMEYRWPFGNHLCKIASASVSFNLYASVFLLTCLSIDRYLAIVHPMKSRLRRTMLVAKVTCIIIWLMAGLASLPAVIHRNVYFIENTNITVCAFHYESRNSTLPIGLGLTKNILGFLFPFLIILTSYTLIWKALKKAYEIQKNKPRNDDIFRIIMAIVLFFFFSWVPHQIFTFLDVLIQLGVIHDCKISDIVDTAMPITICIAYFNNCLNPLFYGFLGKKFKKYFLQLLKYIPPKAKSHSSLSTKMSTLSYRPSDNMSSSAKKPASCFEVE
Method: as §4, §5, §6

Compound	human AT1R b-arrestin2 Max (%) [1] [%]	rat AT1aR b-arrestin2 Max (%) [2] [%]	EC50 [2] [nM]	human AT1R IP One EC50 (M) [3]	rat AT1aR IP One EC50 (M) [4]	EC50 [1] [nM]	EC50 [4] [nM]	rat AT1aR IP One Max (%) [4] [%]
CNCC(=O)N[C@@H](CCCNC(=N)N)C(=O)N[C@H](C(=O)N[C@@H](Cc1ccc(O)cc1)C(=O)N[C@@H](CCC(=O)O)C(=O)N[C@@H](Cc1c[nH]cn1)C(=O)N1CCC[C@H]1C(N)=O)C(C)C [SEQ ID NO:40, Sar-Arg-Val-Tyr-Glu-His-Pro-NH2] (H-[Sar]RVYEHP-NH2; N-terminus assumed)	53.2	87.9	31	inactive	Inactive			
CNCC(=O)N[C@@H](CCCNC(=N)N)C(=O)N[C@H](C(=O)N[C@@H](Cc1ccc(O)cc1)C(=O)N[C@@H](Cc1ccccc1)C(=O)N[C@@H](Cc1c[nH]cn1)C(=O)N1CCC[C@H]1C(N)=O)C(C)C [SEQ ID NO:41, Sar-Arg-Val-Tyr-Phe-His-Pro-NH2]	30.1	53.1		inactive	Inactive	1600		
CNCC(=O)N[C@@H](CCCNC(=N)N)C(=O)N[C@H](C(=O)N[C@@H](Cc1ccc(O)cc1)C(=O)N[C@@H](Cc1c[nH]cn1)C(=O)N[C@@H](Cc1c[nH]cn1)C(=O)N1CCC[C@H]1C(N)=O)C(C)C [SEQ ID NO:42, Sar-Arg-Val-Tyr-His-His-Pro-NH2] (H-[Sar]RVYHHP-NH2; N-terminus assumed)	46.4	74.9	270	inactive	Inactive	630		
CNCC(=O)N[C@@H](CCCNC(=N)N)C(=O)N[C@H](C(=O)N[C@@H](Cc1ccc(O)cc1)C(=O)N[C@@H](CCCCN)C(=O)N[C@@H](Cc1c[nH]cn1)C(=O)N1CCC[C@H]1C(N)=O)C(C)C [SEQ ID NO:43, Sar-Arg-Val-Tyr-Lys-His-Pro-NH2] (H-[Sar]RVYKHP-NH2)	42.7	64.8		inactive			260	17.9
CNCC(=O)N[C@@H](CCCNC(=N)N)C(=O)N[C@H](C(=O)N[C@@H](Cc1ccc(O)cc1)C(=O)N[C@@H](CCCNC(=N)N)C(=O)N[C@@H](Cc1c[nH]cn1)C(=O)N1CCC[C@H]1C(N)=O)C(C)C [SEQ ID NO:45, Sar-Arg-Val-Tyr-Arg-His-Pro-NH2] (H-[Sar]RVYRHP-NH2; N-terminus assumed)	53.3	91.7	27	inactive				10.2
CC[C@H](C)[C@H](NC(=O)[C@H](Cc1ccc(O)cc1)NC(=O)[C@@H](NC(=O)[C@H](CCCNC(=N)N)NC(=O)[C@@H](C)NC)C(C)C)C(=O)N[C@@H](Cc1c[nH]cn1)C(=O)N1CCC[C@H]1C(=O)N[C@@H](C)C(=O)O [SEQ ID NO:47]	80.5	72.2	2100		Inactive			
CC[C@H](C)[C@H](NC(=O)[C@H](Cc1ccccc1)NC(=O)[C@@H](NC(=O)[C@H](CCCNC(=N)N)NC(=O)CNC)C(C)C)C(=O)N[C@@H](Cc1c[nH]cn1)C(=O)N1CCC[C@H]1C(=O)N[C@H](C)C(=O)O [SEQ ID NO:48, Sar-Arg-Val-Phe-Ile-His-Pro-D-Ala-OH]	48.1	42.1		inactive			200	13.9
CC[C@H](C)[C@H](NC(=O)[C@H](Cc1ccc(O)cc1)NC(=O)[C@@H](NC(=O)[C@H](CCCCN)NC(=O)CNC)C(C)C)C(=O)N[C@@H](Cc1c[nH]cn1)C(=O)N1CCC[C@H]1C(=O)N[C@H](C)C(=O)O [SEQ ID NO:49, Sar-Lys-Val-Tyr-Ile-His-Pro-D-Ala-OH]	72.7	52.9	630	inactive	Inactive	1000		
CC[C@H](C)[C@H](NC(=O)[C@H](Cc1ccc(O)cc1)NC(=O)[C@@H](NC(=O)[C@H](CCCNC(=N)N)NC(=O)CNC)C(C)C)C(=O)N[C@@H](CCCCN)C(=O)N1CCC[C@H]1C(=O)N[C@H](C)C(=O)O [SEQ ID NO:50, Sar-Arg-Val-Tyr-Ile-Lys-Pro-D-Ala-OH] (H-[Sar]RVYIKP[dA]-OH; N-terminus assumed)	56.8	85.6	270	inactive	Inactive	680		
CC[C@H](C)[C@H](NC(=O)[C@H](Cc1ccc(O)cc1)NC(=O)[C@@H](NC(=O)[C@H](CCCNC(=N)N)NC(=O)CNC)C(C)C)C(=O)N[C@@H](Cc1c[nH]cn1)C(=O)N1CCC[C@@H]1C(N)=O [SEQ ID NO:51, Sar-Arg-Val-Tyr-Ile-His-D-Pro-NH2]	20.2	5.8		inactive	Inactive	330		
CNCC(=O)N[C@@H](CCCNC(=N)N)C(=O)N[C@H](C(=O)N[C@@H](Cc1ccc(O)cc1)C(=O)N[C@@H](Cc1ccc(O)cc1)C(=O)N[C@@H](Cc1c[nH]cn1)C(=O)N1CCC[C@H]1C(=O)O)C(C)C [SEQ ID NO:52, Sar-Arg-Val-Tyr-Tyr-His-Pro-OH]	45.9	83.8		inactive		1400		8.0
CNCC(=O)N[C@@H](CCCNC(=N)N)C(=O)N[C@H](C(=O)N[C@@H](Cc1ccc(O)cc1)C(=O)N[C@H](C)C(=O)N[C@@H](Cc1c[nH]cn1)C(=O)N1CCC[C@H]1C(N)=O)C(C)C [SEQ ID NO:53, Sar-Arg-Val-Tyr-D-Ala-His-Pro-NH2]	33.6	12.2		inactive	Inactive	1600		
CNCC(=O)N[C@@H](CCCNC(=N)N)C(=O)N[C@H](C(=O)N[C@@H](Cc1ccc(O)cc1)C(=O)N[C@H](C(=O)N[C@@H](Cc1c[nH]cn1)C(=O)N1CCC[C@H]1C(=O)O)C(C)C)C(C)C [SEQ ID NO:54, Sar-Arg-Val-Tyr-Val-His-Pro-OH]	58.6	83.0		inactive	Inactive			
